From patent US11371013B2, “Culture medium composition and method of culturing cell or tissue using thereof” (Nissan Chemical Industries, Ltd., priority 2012, dated 2022)

Legend:
HepG2 cells [1] = assay: Toxicity test of compound to hepatocytes: lactic acid dehydrogenase (LDH) activity measurement; format: cell-based, human; settings: 1 day, DAG 0.015%
Method: (§1) This aqueous solution was sterilized at 121° C. for 20 min in an autoclave. On the other hand, HepG2 cells was mixed with DMEM medium (manufactured by WAKO) at 100000 cells/mL, and the cell suspension was dispensed to the wells of a 96-well flat bottom ultra low adhesion surface microplate (manufactured by Corning Incorporated, #3474) at 100 μL/well. […] Successively, this plate was cultured by being stood still in a CO2 incubator (37° C., 5% CO2) for 1 day.
To the culture medium (100 μL) after culturing for 1 day was added DMEM medium (manufactured by WAKO, 100 μL), and the plate was centrifuged by 440G for 15 min. The supernatant (100 μL) was dispensed to a 96-well titer plate (manufactured by Corning Incorporated), a reaction mixture (100 μL) in a cytotoxicity detection kit (manufactured by Roche Applied Science) was added, and the mixture was stood under shading at room temperature for 30 min. Successively, according to the protocol of the above-mentioned kit, the absorbance at 490 nm (reference; 600 nm) was measured by an absorbance spectrometer (manufactured by Molecular Devices, SPECTRA MAX 190), whereby the rate of the disordered cell, that is, cell disorder rate (%), was measured.

HepG2 cells [2] = assay: Toxicity test of compound to hepatocytes: number of viable cells (Cell Titer-Glo); format: cell-based, human; settings: 1 day, DAG 0.015%, no addition = 1
Method: as §1
The culture medium (50 μL) after culturing for 1 day was dispensed to a 96-well titer plate (manufactured by Corning Incorporated), to this culture medium was added a Cell Titer-Glo (registered trade mark) reagent (manufactured by Promega, 50 μL), and the mixture was incubated at room temperature for 10 min. The luminescence intensity was measured by a multiplate reader is (manufactured by Molecular Devices, FlexStation3) to measure the number of viable cells.

[3] = Viscosity measurement of medium composition (E type viscometer); format: physicochemical; settings: 37°C, 100 rpm
Method: The viscosity of the liquid containing the structure can be measured, for example, by the method described in the below-mentioned Examples. Specifically, it can be measured under 37° C. conditions and using an E-type viscosity meter (manufactured by Toki Sangyo Co., Ltd., TV-22 type viscosity meter, model: TVE-22L, corn roter: standard roter 1° 34′×R24, rotation number 100 rpm).
(§2) This aqueous solution was allowed to cool to room temperature with stirring, and sterilized at 121° C. for 20 min in an autoclave. […] The viscosity of the medium compositions was measured using an E type viscometer (manufactured by Toki Sangyo Co., Ltd., Viscometer TVE-22L, standard roter 1° 34′×R24) under 37° C. condition at 100 rpm for 5 min.
The medium compositions prepared above were subjected to a suspension test of HeLa cell spheres and a viscosity measurement, in the same manner as with the deacylated gellan gum-containing medium. The viscosity of 1.0% (w/v) methylcellulose was measured at 50 rpm due to the measurement range of the apparatus.
In the same manner as in Experimental Example 2, spheres of HeLa cells were formed, and several tens of the spheres were added to each medium (1 mL) prepared above, the mixture was stood still at 37° C. for 1 hr, and the suspended state of the sphere cells was visually observed. […] Furthermore, it was confirmed that addition of an equal amount of the medium to the cell suspension and centrifugation (300 to 400G, 5 min) thereof result in sedimentation and recovery of the spheres of HeLa cells. The suspended state of the spheres of HeLa cells cultured in the medium composition of the present invention is each shown in FIG. 11.
(§3) The final concentration of polysaccharide was set to 0.1% (w/v) for xanthan gum, sodium alginate, locust bean gum, 0.2% (w/v) for methylcellulose, and 0.05% (w/v) for K-carageenan and diutan gum. The state of each medium composition and the viscosity measured by a method similar to that in Analysis Example 1 are shown in Tables 11-16.

[4] = State of medium composition (liquid/solid); format: physicochemical
Method: as §2
DMEM/F-12 medium (manufactured by Aldrich, 100 mL) was placed in a 200 mL pear-shaped flask, and methylcellulose (M0387, manufactured by Aldrich, […]) was added. The mixture was stirred while cooling in an ice bath to dissolve methylcellulose. Using this solution, medium compositions added with the aqueous methylcellulose solution at a final concentration of 0.1, 0.3, 0.6 or 1.0% (w/v) were prepared.
A 10-fold concentration of DMEM/F-12 medium (manufactured by Aldrich, 1 mL), a buffer for reconstitution (manufactured by Nitta Gelatin Inc., 1 mL) and pure water (1.5 mL) were added to 0.3% cell matrix type I-A (manufactured by Nitta Gelatin Inc., 6.5 mL), and the mixture was stirred in an ice to give a 0.2% collagen-containing medium. Similarly, medium compositions added with collagen at a final concentration of 0.01, 0.05, 0.1 or 0.2% (w/v) were prepared.
as §3

Row | Compound | cell disorder rate (HepG2 cells [1]; 20 μM) [%] | cell disorder rate (HepG2 cells [1]; 40 μM) [%] | cell disorder rate (HepG2 cells [1]; 60 μM) [%] | cell disorder rate (HepG2 cells [1]; 100 μM) [%] | relative cell number (HepG2 cells [2]; 20 μM) | relative cell number (HepG2 cells [2]; 40 μM) | relative cell number (HepG2 cells [2]; 60 μM) | relative cell number (HepG2 cells [2]; 100 μM) | viscosity ([3]; 0.01% (w/v) in DMEM/F-12) [mPa · s] | viscosity ([3]; 0.05% (w/v) in DMEM/F-12) | viscosity ([3]; 0.1% (w/v) in DMEM/F-12) | viscosity ([3]; 0.2% (w/v) in DMEM/F-12) | state ([4]; 0.01% (w/v) in DMEM/F-12) | state ([4]; 0.05% (w/v) in DMEM/F-12) | state ([4]; 0.1% (w/v) in DMEM/F-12) | state ([4]; 0.2% (w/v) in DMEM/F-12)
1 | Cc1c(C)c2c(c(C)c1O)CCC(C)(COc1ccc(CC3SC(=O)NC3=O)cc1)O2 (stereo not shown) [Troglitazone] | 2.68 | 14.7 | 22.5 | 60.7 | 0.68 | 0.50 | 0.48 | 0.39 | – | – | – | – | – | – | – | –
2 | collagen | – | – | – | – | – | – | – | – | 1.18 | unmeasurable | unmeasurable | unmeasurable | liquid | liquid/solid | solid (gel) | solid (gel)
